# Key:
# Assay type in all cases: in vivo
# [1] = test system: leptin-resistant obese mice carrying the M390R mutation in the Bbs1 gene (Bbs1^M390R); test: Body weight and food intake of leptin-resistant obese Bbs1 M390R mice (Experiment 2); conditions: mouse model for Bardet-Biedl syndrome with leptin resistance
# Text: Experiment 2: The purpose of the experiment is to study the effects of GLP-1 receptor agonists on • body weight and food intake of leptin-resistant obese mice carrying the M390R mutation in the Bbs1 gene (Bbs1^M390R) and on • body weight and food intake of lean wild type littermate controls, both groups fed ad libitum. In this particular experiment the GLP-1 receptor agonist used is acetyl-GLP-1(7-34)amide. The M390R mutation in the Bbs1 gene can also be found in human Bardet-Biedl syndrome.
# Male 12-16 weeks old mice are housed in individual cages for 3-5 days to acclimate to single housing conditions before baseline body weight and 24-hour food intake is determined during 4 days. Then food intake and body weight is tested in response to treatment with acetyl-GLP-1(7-34)amide. […]
# During the treatment period, mice continue to have free access to food. […] At the end of the 7-day treatment period, body composition is determined in live mice using nuclear magnetic resonance (NMR) tomography. Mice are then sacrificed and the weight of various organs and tissues including various fat depots, liver, kidneys, heart, lung and brain are measured. […]
# [2] = test system: mice carrying the M390R mutation in the Bbs1 gene (Bbs1^M390R); test: Retinal degeneration (rod-cone dystrophy, retinal cell apoptosis) in Bbs1 M390R mice (Experiment 3); conditions: the same mouse model for Bardet-Biedl syndrome
# Description: Experiment 3: The purpose of the experiment is to study the effects of GLP-1 receptor agonists on • Development of rod-cone dystrophy in mice carrying the M390R mutation in the Bbs1 gene (Bbs1^M390R). In this particular experiment the GLP-1 receptor agonist used is acetyl-GLP-1(7-34)amide. The M390R mutation in the Bbs1 gene can also be found in human Bardet-Biedl syndrome.
# Male Bbs1^M390R mice are used in the experiment. From postnatal day 6 to postnatal day 30 the experimental group is treated intraperitoneally with acetyl-GLP-1 (7-34)amide. Mice of the control group are treated during the same age period with vehicle.
# Analysis of endpoints: comparison of control vs GLP-1 At the end of the treatment period, mice are investigated by use of electroretinography (ERG), optical coherence tomography (OCT) and histology.
# [3] = test system: BBS12^-/- mice; test: Apoptosis of photoreceptors in BBS12 model: retinal explants and BBS12-/- mice (Experiments 1a, 1b); conditions: another mouse model for Bardet-Biedl syndrome
# Description: Experiment 1a: Effects of GLP-1 in ex-vivo model (retinal explants): In BBS12-deprived retinal explants and the Bbs12^/ murine model, impaired intraciliary transport results in protein retention in the endoplasmic reticulum. The protein overload activates a pro-apoptotic unfolded protein response leading to a specific Caspase12-mediated apoptosis of the photo-receptors. BBS12-deprived retinal explants are incubated with Ac-GLP-1 (7-34)amide and Caspase12-mediated apoptosis of the photo-receptors is compared to the apoptosis rate of BBS12-deprived retinal explants, which have been treated with the vehicle only.
# • 15-day-old mice are sacrificed by decapitation, and the eyes are removed • First, the sclera is carefully removed, leaving the retinal pigmented epithelium attached to the eye ball. • Incisions are made at the edge of the cornea to remove cornea, lens, and hyaloid body. • Retinas are transferred, with retinal pigmented epithelium side down, to a culture membrane • Retina explants are maintained at 37 °C in a humidified 5% CO2 atmosphere. • Specific gene silencing with lentiviruses that carry a shRNA sequence for Bbs12 is performed. • Drugs are added to the culture medium […]
smiles,measurement,setting,value
"CC[C@H](C)[C@H](NC(=O)[C@H](Cc1ccccc1)NC(=O)[C@H](CCC(=O)O)NC(=O)[C@H](CCCCN)NC(=O)[C@H](C)NC(=O)[C@H](C)NC(=O)[C@H](CCC(N)=O)NC(=O)CNC(=O)[C@H](CCC(=O)O)NC(=O)[C@H](CC(C)C)NC(=O)[C@H](Cc1ccc(O)cc1)NC(=O)[C@H](CO)NC(=O)[C@H](CO)NC(=O)[C@@H](NC(=O)[C@H](CC(=O)O)NC(=O)[C@H](CO)NC(=O)[C@@H](NC(=O)[C@H](Cc1ccccc1)NC(=O)[C@@H](NC(=O)CNC(=O)[C@H](CCC(=O)O)NC(=O)[C@H](C)NC(=O)[C@H](Cc1c[nH]cn1)NC(C)=O)[C@@H](C)O)[C@@H](C)O)C(C)C)C(=O)N[C@@H](C)C(=O)N[C@@H](Cc1c[nH]c2ccccc12)C(=O)N[C@@H](CC(C)C)C(=O)N[C@H](C(=O)N[C@@H](CCCCN)C(N)=O)C(C)C [Ac-GLP-1 (7-34)amide, N-acetyl-GLP-1(7-34)amide]",food intake,[1],inhibit food intake
same,weight loss,[1],stimulate weight loss
same,apoptosis of retinal cells,[2],inhibits apoptosis of retinal cells
same,apoptosis of retinal cells,[3],inhibits apoptosis of retinal cells
